# In patent US10165772B2, “Methods and compounds for increasing red blood cell survival” (priority 2008, dated 2019):
# Assays:
# Format in all cases: cell-based
# [1] = tested on: human red blood cell (RBC); test: Human RBC survival in vitro in RPMI 1640, viable/dead cells by flow cytometry (FSC/SSC); conditions: for RBC survival as compared to RBCs cultured in the presence of buffer only: 7 days at 37° C., 1, 10, 100 μM tested (FIG. 13); for protecting effect on RBCs (survival versus vehicle control): 100 μM, RPMI 1640
# Procedure: RBCs were incubated in vitro at 37° C., and cells were analyzed by flow cytometry for assessment of the relative proportions of dead and viable cells. Forward scatter (FSC)/side scatter (SSC) dot plots of RBCs incubated in the presence or absence of 5-HT (100 μM) are shown in (A) to (E) for the indicated time points. Two main regions of analysis are set, R1 (left box) and R2 (right box), corresponding to dead and viable RBCs, respectively. The proportion of viable cells remaining at each time-point is indicated next to the R2 region (upper right in the dot plots). (F) Typical concentration-dependent effects of 5-HT (0-100 μM) on RBCs incubated for different periods of time;
# RBCs were incubated for various lengths of time in the RPMI 1640 medium at 37° C. (A), at room temperature (21 to 23° C.) (B), or at 4° C. (C). 5-HT (100 μM, black circles) or vehicle control (white circles) was added before incubation at Day 0, and cell viability was assessed by flow cytometry at several times as indicated;
# RBCs were incubated for 7 days at 37° C. in the presence or absence of different concentrations of the indicated indole compounds (white bars =1 μM; grey bars=10 μM; black bars:100 μM). As a control, RBCs were incubated in the presence of the appropriate buffer (without the compounds). RBCs survival in the presence of a given compound is expressed as the percentage of survival relative to the control.
# Red blood cells isolation. Venous blood was drawn from healthy volunteers, and RBCs were isolated by centrifugation at 800 rpm to remove platelet-rich plasma, and white blood cells. The resulting pellet of RBCs was washed three times in NaCl 0.9% by centrifugation at 3000 rpm. RBCs were incubated at 37° C., 5% CO2 in 24-well microplates at a concentration of 1x10^6 cells/ml in RPMI 1640 medium without phenol red containing HEPES/NaOH (pH 7.4) and penicillin (100 U/ml)/streptomycin ([…]).
# (§1) Cell culture. Drugs [serotonin (Catalog No. H9525), melatonin (Catalog No. M5250), pindolol (Catalog No. P0778) and indomethacin (Catalog No. 18280)] were all purchased from Sigma-Aldrich. They were added at the indicated concentrations at the beginning of cell incubation (Day 0). Cells were harvested at specific time-points and analyzed by flow cytometry (FACScan™, Becton Dickinson) according to forward and side scatters (FSC and SSC, respectively). FSC is proportional to cell size, while SSC is proportional to cell complexity, which may reflect hemoglobin content of RBCs. The relative proportions of viable and dead RBCs were calculated by setting appropriate regions on the dot plots. In some experiments, RBCs were sorted according to FSC and SSC. Cell density was checked routinely by inverted light microscopy, and cell morphology was assessed by May Grünwald-Giemsa staining followed by light microscopy.
# mouse RBCs = test: Survival of mouse RBCs cultured at 37° C., flow cytometry; conditions: day 1 to day 7, 0-100 μM
# Procedure: Mouse RBCs were cultured at 37° C. for the indicated periods of time, in the presence of increasing concentrations of 5-HT (0-100 μM). Cell viability was assessed by flow cytometry at day 1 (A), day 2 (B), day 3 (C), day 5 (D) and day 7 (E), and the percentage of viable cells (% of cells in R2) is indicated;
# as §1, with “microscopy. […]” for “microscopy.”
# human RBCs [2] = test: Survival of human RBCs cultured in AS-3 additive solution, flow cytometry; conditions: 100 μM
# Procedure: AS-3 is an additive solution commonly used for storage of RBCs. RBCs were incubated in home-made (A) and commercially available (B) AS-3 solution (Haemonetics, Catalog No. 0460a-00) for various lengths of time at 4° C. in the absence (white circles) or presence (100 μM, black circles) of 5-HT, and cell viability was assessed by flow cytometry at several times as indicated. The home-made AS-3 was prepared in sterile water as follows: Sodium chloride (NaCl, 2.35 g), D-Glucose (Dextrose, 5.5 g), Adenine (0.15 g), Citric Acid (0.21 g), Sodium Phosphate dibasic (Na2HPO4 anhydrous, 1.380 g) were dissolved in 500 ml of sterile water. The pH of the solution was adjusted at 7.39;
# as §1, with “They were added at the indicated concentrations at the beginning of cell incubation (Day 0).” left out, “FSC is proportional to cell size, while SSC is proportional to cell complexity, which may reflect hemoglobin content of RBCs.” left out, “In some experiments, RBCs were sorted according to FSC and SSC.” left out
# The effect of 5-HT on the survival of human RBCs cultured in AS-3 solution was assessed. […]
# human RBCs [3] = test: RBC density and morphology by May Grünwald-Giemsa staining and light microscopy
# Procedure: (C). Cells were incubated in the presence or absence of 5-HT. The density of RBC suspension and their morphology were assessed by May Grünwald-Giemsa staining;
# as §1
# To evaluate the morphology of the two populations of RBCs, these cells were sorted by flow cytometry according to their FSC/SSC characteristics, and stained by the May Grünwald-Giemsa method. […] Cells with intermediate amounts of hemoglobin (between normochromic and hypochromic) were also present in the R2 region (FIG. 2, upper right panel). […] At day 7, in the absence of 5-HT, fewer cells were present, and the majority of these cells were hypochromic with cytoplasmic inclusions (FIG. 3B, left panels).
smiles,measurement,setting,value
COc1ccc2c(c1)c(CC(=O)O)c(C)n2C(=O)c1ccc(Cl)cc1 [indomethacin],RBC survival as compared to RBCs cultured in the presence of buffer only,[1],increased survival
"NCCc1c[nH]c2ccc(O)cc12 [5-HT, serotonin]",concentration giving optimal effect on RBC viability,"[1]; 0-100 μM tested, 37° C., FIG. 1F",100 µM
same,protecting effect on RBCs (survival versus vehicle control),[1]; 4° C.,is observed
same,protecting effect on RBCs (survival versus vehicle control),[1]; 37° C.,is observed
same,percentage of viable RBCs as compared to controls without 5-HT,"[1]; all time-points (day 0 to 21), 37° C., 5-HT 100 μM",higher
same,protecting effect on RBCs (survival versus vehicle control),[1]; room temperature (21-23° C.),is observed
same,proportion of viable mouse RBCs versus 5-HT-free cultures,mouse RBCs,higher
same,survival of RBCs versus absence of 5-HT,"human RBCs [2]; commercially available AS-3, 4° C.",increases the survival
same,survival of RBCs versus absence of 5-HT,"human RBCs [2]; home-made AS-3, 4° C.",increases the survival
same,RBC morphology (normochromic / hypochromic),human RBCs [3]; 91 days at 4° C.,normochromic red blood cells are observed
same,RBC morphology (normochromic / hypochromic),"human RBCs [3]; day 7, 37° C.",the majority of these cells were normochromic
same,"number of cells remaining, as judged by cell density","human RBCs [3]; day 7, 37° C., versus absence of 5-HT",a greater number of cells remained
CC(C)NCC(O)COc1cccc2[nH]ccc12 (centres unmarked) [pindolol],RBC survival as compared to RBCs cultured in the presence of buffer only,[1],increased survival
COc1ccc2[nH]cc(CCNC(C)=O)c2c1 [melatonin],RBC survival as compared to RBCs cultured in the presence of buffer only,[1],increased survival
